Source: patent US5409933A, “Quinoline derivatives and processes for preparing the same” (priority 1993, dated 1995)
Counter-ions that a name gives are not always drawn. Like-named read-outs stand apart in the source and are kept apart here.

Assays:
Assay in all cases: In Vitro Anti-Bacterial Activity Test (MIC, agar dilution)
Type in all cases: cell-based
Enterobacter cloacae P99 = conditions: Enterobacter cloacae, P99, 18 h
Outline: (§1)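 Strains were inoculated at 10^7 C.F.U./ml onto Mueller-Hinton agar containing serial compound dilutions and incubated 18 hours at 37° C. The minimum inhibitory concentration was read from growth, with ciprofloxacin run as the reference antibacterial.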

[1] = tested on: Pseudomonas aeruginosa 1771M; conditions: Pseudomonas aeruginosa, 1771M, 18 h, Muller-Hinton agar, 37° C.
Outline: (§2)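 Each strain, at 10^7 C.F.U./ml, was spotted onto Muller-Hinton agar carrying serial compound dilutions. Growth after an 18-hour incubation at 37° C. defined the minimum inhibitory concentration.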

Klebsiella oxytoca 1082E = conditions: Klebsiella oxytoca 1082E; Muller-Hinton agar, 37° C., 18 hours; read-out: MIC
Outline: as §2

[2] = tested on: Pseudomonas aeruginosa 1771; conditions: Pseudomonas aeruginosa 1771; Muller-Hinton agar, 37° C., 18 hours; read-out: MIC
Outline: as §2

[3] = tested on: Staphylococcus aureus 285; conditions: Staphylococcus aureus, 285, 18 h, Staphylococcus aureus 285; Muller-Hinton agar, 37° C., 18 hours; read-out: MIC
Outline: as §2

Escherichia coli DC2 = conditions: Escherichia coli, DC2, 18 h
Outline: as §2

[4] = tested on: Pseudomonas aeruginosa 1592E; conditions: Muller-Hinton agar, 37° C., 18 hours, read-out: MIC
Outline: as §2

[5] = tested on: Klebsiella aerogenes 1522E; conditions: Klebsiella aerogenes, 1522E, 18 h, Klebsiella aerogenes 1522E; Muller-Hinton agar, 37° C., 18 hours; read-out: MIC
Outline: as §2

[6] = tested on: Staphylococcus aureus SG511; conditions: Staphylococcus aureus SG511; Muller-Hinton agar, 37° C., 18 hours; read-out: MIC
Outline: as §2

[7] = tested on: Staphylococcus aureus 503; conditions: Staphylococcus aureus 503; Muller-Hinton agar, 37° C., 18 hours; read-out: MIC
Outline: as §2

Escherichia coli TEM = conditions: Escherichia coli, 18 h, Muller-Hinton agar, 37° C.
Outline: as §1

[8] = tested on: Pseudomonas aeruginosa 9027; conditions: Muller-Hinton agar, 37° C., 18 hours, read-out: MIC
Outline: as §2

Escherichia coli 1507E = conditions: Muller-Hinton agar, 37° C.
Outline: as §2

[9] = tested on: Streptococcus pyogenes 77A; conditions: Streptococcus pyogenes 77A; Muller-Hinton agar, 37° C., 18 hours; read-out: MIC
Outline: as §2

Escherichia coli 078 = tested on: Escherichia coli 078
Outline: as §2

[10] = tested on: Enterobacter cloacae 1321E; conditions: Enterobacter cloacae 1321E; Muller-Hinton agar, 37° C., 18 hours; read-out: MIC
Outline: as §2

[11] = tested on: Streptococcus pyogenes 308A; conditions: Muller-Hinton agar, 37° C., 18 hours, read-out: MIC
Outline: as §2

[12] = tested on: Streptococcus faecium MD8b; conditions: Enterococcus faecium, Muller-Hinton agar, 37° C., 18 hours, read-out: MIC
Outline: as §2

Escherichia coli DC0 = conditions: Muller-Hinton agar, 37° C., 18 hours, read-out: MIC
Outline: as §2

Salmonella typhimurium = conditions: Salmonella enterica; Salmonella typhimurium; Muller-Hinton agar, 37° C., 18 hours; read-out: MIC
Outline: as §2

| Structure (SMILES) | MIC (Enterobacter cloacae P99) | MIC [1] | MIC (Klebsiella oxytoca 1082E) | MIC [2] | MIC [3] | MIC (Escherichia coli DC2) | MIC [4] | MIC [5] | MIC [6] | MIC [7] | MIC (Escherichia coli TEM) | MIC [8] | MIC (Escherichia coli 1507E; Escherichia coli, 1507E, 18 h) | MIC [9] | MIC (Escherichia coli 078; Escherichia coli, 078, 18 h) | MIC [10] | MIC [11] | MIC [12] | MIC (Escherichia coli DC0) | MIC (Salmonella typhimurium) | also measured |
| --- | --- | --- | --- | --- | --- | --- | --- | --- | --- | --- | --- | --- | --- | --- | --- | --- | --- | --- | --- | --- | --- |
| COc1c(N2CCC(N)C2)c(F)cc2c(=O)c(C(=O)C[N+](=O)[O-])cn(C3CC3)c12 (stereo not drawn) [Example 49, 1-cyclopropyl-6-fluoro-8-methoxy-7-(3-aminopyrrolidin-1-yl)-3-(2-nitroacetyl)-1,4-dihydro-4-oxoquinoline hydrochloride] | 0.049 µg/mL | 0.781 µg/mL | 0.013 µg/mL | 3.12 µg/mL | 0.098 µg/mL | 0.098 µg/mL | 1.56 µg/mL | 0.098 µg/mL | 0.098 µg/mL | 0.098 µg/mL | 0.049 µg/mL | 3.12 µg/mL | 0.098 µg/mL | 0.098 µg/mL | 0.049 µg/mL | 0.025 µg/mL | 0.391 µg/mL | 0.195 µg/mL | 0.391 µg/mL | 0.049 µg/mL | – |
| Cc1c(N2CCC(N)C2)c(F)cc2c(=O)c(C(=O)C[N+](=O)[O-])cn(C3CC3)c12 (stereo not drawn) [Example 50, 1-cyclopropyl-6-fluoro-8-methyl-7-(3-aminopyrrolidin-1-yl)-3-(2-nitroacetyl)-1,4-dihydro-4-oxoquinoline hydrochloride] | 0.013 µg/mL | 0.391 µg/mL | 0.013 µg/mL | 1.56 µg/mL | 0.098 µg/mL | 0.049 µg/mL | 0.781 µg/mL | 0.195 µg/mL | 0.098 µg/mL | 0.098 µg/mL | 0.049 µg/mL | 1.56 µg/mL | 0.098 µg/mL | 0.391 µg/mL | 0.025 µg/mL | 0.013 µg/mL | 0.781 µg/mL | 0.195 µg/mL | 0.195 µg/mL | 0.013 µg/mL | – |
| Cc1c(F)c(N2CCNC(C)C2)cc2c1c(=O)c(C(=O)C[N+](=O)[O-])cn2C1CC1 (stereo not drawn) [Example 51, 1-cyclopropyl-5-methyl-6-fluoro-7-(3-methylpiperazin-1-yl)-3-(2-nitroacetyl)-1,4-dihydro-4-oxoquinoline hydrochloride] | 0.025 µg/mL | 0.195 µg/mL | 0.013 µg/mL | 0.781 µg/mL | 0.098 µg/mL | 0.195 µg/mL | 0.391 µg/mL | 0.195 µg/mL | 0.195 µg/mL | 0.098 µg/mL | 0.049 µg/mL | 0.781 µg/mL | 0.049 µg/mL | 0.391 µg/mL | 0.025 µg/mL | 0.025 µg/mL | 0.781 µg/mL | 0.391 µg/mL | 0.781 µg/mL | 0.025 µg/mL | – |
| CCOC(=O)C(C(N)=O)C(=O)c1cn(C2CC2)c2c(Cl)c(N3CCC(N)C3)c(F)cc2c1=O (stereo not drawn) [Example 52, 1-cyclopropyl-6-fluoro-8-chloro-7-(3-aminopyrrolidin-1-yl)-3-(2-amido-2-ethoxycarbonylacetyl)-1,4-dihydro-4-oxoquinoline hydrochloride] | 0.004 µg/mL | 0.098 µg/mL | < 0.002 µg/mL | 0.391 µg/mL | 0.025 µg/mL | 0.025 µg/mL | 0.391 µg/mL | 0.013 µg/mL | 0.025 µg/mL | 0.025 µg/mL | < 0.002 µg/mL | 0.781 µg/mL | – | 0.391 µg/mL | 0.007 µg/mL | < 0.002 µg/mL | 0.195 µg/mL | 0.391 µg/mL | 0.049 µg/mL | 0.013 µg/mL | MIC (Escherichia coli 1507E; 18 hours, read-out: MIC): 0.004 µg/mL |
| NCC1CCN(c2c(F)cc3c(=O)c(C(=O)C[N+](=O)[O-])cn(C4CC4)c3c2Cl)C1 (stereo not drawn) [Example 53, 1-cyclopropyl-6-fluoro-8-chloro-7-(3-aminomethylpyrrolidin-1-yl)-3-(2-nitroacetyl)-1,4-dihydro-4-oxoquinoline hydrochloride] | 0.013 µg/mL | 0.195 µg/mL | < 0.002 µg/mL | 0.781 µg/mL | 0.007 µg/mL | 0.049 µg/mL | 0.391 µg/mL | 0.013 µg/mL | 0.013 µg/mL | 0.013 µg/mL | 0.013 µg/mL | 0.781 µg/mL | 0.025 µg/mL | 0.049 µg/mL | – | < 0.002 µg/mL | 0.098 µg/mL | 0.049 µg/mL | 0.195 µg/mL | 0.013 µg/mL | MIC (Escherichia coli 078; Escherichia coli 078, Muller-Hinton agar, 37° C., 18 hours, read-out: MIC): < 0.002 µg/mL |
| CCOC(=O)C(C(=O)OCC)C(=O)c1cn(C2CC2)c2c(Cl)c(N3CC[C@@H](NC)C3)c(F)cc2c1=O [Example 55, 1-cyclopropyl-6-fluoro-8-chloro-7-(3-3R-methylaminopyrrolidin-1-yl)-3-(2,2-diethoxycarbonylacetyl)-1,4-dihydro-4-oxoquinoline hydrochloride] | 0.025 µg/mL | 0.195 µg/mL | 0.025 µg/mL | 0.391 µg/mL | 0.195 µg/mL | 0.098 µg/mL | 0.391 µg/mL | 0.049 µg/mL | 0.098 µg/mL | 0.195 µg/mL | 0.025 µg/mL | 1.56 µg/mL | 0.025 µg/mL | 0.391 µg/mL | 0.013 µg/mL | 0.049 µg/mL | 1.56 µg/mL | 0.391 µg/mL | 0.391 µg/mL | 0.013 µg/mL | – |
| CCOC(=O)C(C(=O)OCC)C(=O)c1cn(C2CC2)c2c(Cl)c(N3CC[C@H](NC)C3)c(F)cc2c1=O [Example 56, 1-cyclopropyl-6-fluoro-8-chloro-7-(3-3S-methylaminopyrrolidin-1-yl)-3-(2,2-diethoxycarbonylacetyl)-1,4-dihydro-4-oxoquinoline hydrochloride] | 0.013 µg/mL | 0.098 µg/mL | 0.013 µg/mL | 0.391 µg/mL | 0.098 µg/mL | 0.049 µg/mL | 0.391 µg/mL | 0.049 µg/mL | 0.049 µg/mL | 0.098 µg/mL | 0.013 µg/mL | 0.781 µg/mL | 0.013 µg/mL | 0.195 µg/mL | 0.007 µg/mL | 0.049 µg/mL | 0.781 µg/mL | 0.195 µg/mL | 0.195 µg/mL | 0.007 µg/mL | – |
| CCOC(=O)C(C(=O)OCC)C(=O)c1cn(C2CC2)c2c(Cl)c(N3CCC(NC)C3)c(F)cc2c1=O (stereo not drawn) [Example 57, 1-cyclopropyl-6-fluoro-8-chloro-7-(3-methylaminopyrrolidin-1-yl)-3-(2,2-diethoxycarbonylacetyl)-1,4-dihydro-4-oxoquinoline hydrochloride] | 0.013 µg/mL | 0.195 µg/mL | 0.049 µg/mL | 0.391 µg/mL | 0.195 µg/mL | 0.025 µg/mL | 0.781 µg/mL | 0.049 µg/mL | 0.049 µg/mL | 0.195 µg/mL | 0.013 µg/mL | 1.56 µg/mL | 0.013 µg/mL | 0.195 µg/mL | 0.007 µg/mL | 0.049 µg/mL | 0.781 µg/mL | 0.098 µg/mL | 0.049 µg/mL | 0.013 µg/mL | – |
| CCOC(=O)C(C(=O)OCC)C(=O)c1cn(C2CC2)c2c(OC)c(N3CC[C@@H](NC)C3)c(F)cc2c1=O [Example 58, 1-cyclopropyl-6-fluoro-8-methoxy-7-(3-3R-methylaminopyrrolidin-1-yl)-3-(2,2-diethoxycarbonylacetyl)-1,4-dihydro-4-oxoquinoline hydrochloride] | 0.098 µg/mL | 0.781 µg/mL | 0.049 µg/mL | 1.56 µg/mL | 0.195 µg/mL | 0.195 µg/mL | 1.56 µg/mL | 0.195 µg/mL | 0.195 µg/mL | 0.195 µg/mL | 0.098 µg/mL | 1.56 µg/mL | 0.391 µg/mL | 1.56 µg/mL | 0.098 µg/mL | 0.098 µg/mL | 1.56 µg/mL | 1.56 µg/mL | 1.56 µg/mL | 0.195 µg/mL | – |
